According to PubChem BioAssay (NCI):
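Test compounds were applied to cells in 96-well plates for 48 hours at 5 doses. GI50: concentration for 50% inhibition of growth. At the TGI there is no net growth.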

Columns and labels:
Experiment in all cases: DTP human tumour cell line panel, 48 h
[1] = tested on: T-47D breast
[2] = tested on: HCT-15 colon
[3] = tested on: OVCAR-5 ovarian
[4] = tested on: HOP-62 NSCLC
[5] = tested on: SF-295 CNS
[6] = tested on: SR leukemia
[7] = tested on: RXF 393 renal
[8] = tested on: UACC-257 melanoma
[9] = tested on: IGROV1 ovarian
[10] = tested on: EKVX NSCLC

Structure (SMILES): CC(=O)OCC12C(=O)C[C@@H](C)C3(CC(c4ccoc4)OC3=O)C1CCC(OC(C)=O)C21CO1 (stereo partly drawn)
- TGI [1]: > 100 µM
- TGI [2]: > 100 µM
- TGI [3]: > 100 µM
- TGI [4]: > 100 µM
- TGI [5]: > 100 µM
- TGI [6]: > 100 µM
- TGI [7]: > 100 µM
- TGI [8]: > 100 µM
- TGI [9]: > 100 µM

Structure (SMILES): O=C1C(CN2CCCCC2)CCC1CN1CCCCC1 (stereo not drawn)
- TGI [1]: 36.5 µM
- TGI [2]: 47.4 µM
- TGI [3]: 47.8 µM
- TGI [4]: > 100 µM
- TGI [10]: > 100 µM
- TGI [5]: > 46.4 µM
- TGI [6]: 3.75 µM
- TGI [7]: 28.3 µM
- TGI [8]: 47.1 µM
- TGI [9]: 49.7 µM

Structure (SMILES): COC(CNC(=O)C(C)NC(=O)CCc1ccccc1)OC (stereo not drawn)
- TGI [1]: > 100 µM
- TGI [2]: > 100 µM
- TGI [3]: > 100 µM
- TGI [10]: > 100 µM
- TGI [5]: > 100 µM
- TGI [6]: > 100 µM
- TGI [7]: > 100 µM
- TGI [8]: > 100 µM
- TGI [9]: > 100 µM

Structure (SMILES): CON(C)C(=O)CNC(=O)OCC1c2ccccc2-c2ccccc21
- TGI [1]: > 100 µM
- TGI [2]: > 100 µM
- TGI [3]: > 100 µM
- TGI [4]: > 100 µM
- TGI [10]: > 100 µM
- TGI [5]: > 100 µM
- TGI [6]: 69.6 µM
- TGI [7]: > 100 µM
- TGI [8]: > 100 µM
- TGI [9]: > 100 µM

Structure (SMILES): CCOC(=O)c1nc2ccc(C(F)(F)F)cc2nc1NCc1cc(OC)c(OC)c(OC)c1
- TGI [1]: > 100 µM
- TGI [2]: > 100 µM
- TGI [3]: > 100 µM
- TGI [4]: > 100 µM
- TGI [10]: > 100 µM
- TGI [5]: > 100 µM
- TGI [6]: 48.5 µM
- TGI [7]: > 100 µM
- TGI [8]: > 100 µM
- TGI [9]: > 100 µM

Structure (SMILES): O=C1CC(=Nc2ccc(Cl)cc2)C(c2ccccc2)N1c1ccccc1 (stereo not drawn)
- TGI [1]: 6.27 µM
- TGI [2]: > 100 µM
- TGI [4]: > 100 µM
- TGI [10]: > 100 µM
- TGI [5]: > 100 µM
- TGI [6]: 45.5 µM
- TGI [7]: > 100 µM
- TGI [8]: > 100 µM
- TGI [9]: > 100 µM

Structure (SMILES): COc1cc(CNCc2cc(OC)c(OC)c(OC)c2)cc(OC)c1OC
- TGI [1]: > 10 µM
- TGI [2]: > 10 µM
- TGI [3]: > 10 µM
- TGI [4]: > 10 µM
- TGI [10]: > 10 µM
- TGI [5]: > 10 µM
- TGI [6]: > 9.12 µM
- TGI [7]: > 10 µM
- TGI [8]: > 10 µM
- TGI [9]: > 10 µM

Structure (SMILES): CCOC(=O)N/N=C(/N)c1cccc([N+](=O)[O-])c1
- TGI [1]: > 100 µM
- TGI [2]: > 100 µM
- TGI [3]: > 100 µM
- TGI [4]: > 100 µM
- TGI [10]: > 100 µM
- TGI [5]: > 100 µM
- TGI [6]: > 100 µM
- TGI [7]: > 100 µM
- TGI [8]: > 100 µM
- TGI [9]: > 100 µM

Structure (SMILES): CCOCc1nc2c(OC)cc(-c3nc4ccc(N5CCN(C)CC5)cc4[nH]3)c(OC)c2[nH]1
- TGI [1]: > 100 µM
- TGI [2]: > 100 µM
- TGI [3]: > 100 µM
- TGI [4]: 62.8 µM
- TGI [10]: > 100 µM
- TGI [5]: 36.8 µM
- TGI [6]: 59.7 µM
- TGI [7]: 36.2 µM
- TGI [8]: 34.4 µM
- TGI [9]: > 100 µM

Structure (SMILES): O=Cc1ccc2c(c1)CC1(Cc3ccccc3C1)C2
- TGI [1]: > 100 µM
- TGI [2]: 73.4 µM
- TGI [3]: > 100 µM
- TGI [4]: 34.2 µM
- TGI [10]: > 100 µM
- TGI [5]: 94.5 µM
- TGI [6]: 18.4 µM
- TGI [7]: > 100 µM
- TGI [8]: 44.1 µM
- TGI [9]: 46.1 µM

Structure (SMILES): Nc1cc2[nH]c(=O)c(=O)[nH]c2cc1N
- TGI [1]: > 100 µM
- TGI [2]: > 100 µM
- TGI [3]: > 100 µM
- TGI [4]: > 100 µM
- TGI [10]: > 100 µM
- TGI [5]: > 100 µM
- TGI [6]: > 100 µM
- TGI [7]: > 100 µM
- TGI [8]: > 100 µM
- TGI [9]: > 100 µM

Structure (SMILES): COc1cc(C(=O)N(Cc2cccnc2)C(=S)N(Cc2cccnc2)C(=O)c2cc(OC)c(OC)c(OC)c2)cc(OC)c1OC
- TGI [1]: > 100 µM
- TGI [2]: > 100 µM
- TGI [3]: > 100 µM
- TGI [4]: > 100 µM
- TGI [10]: > 100 µM
- TGI [5]: > 100 µM
- TGI [6]: > 100 µM
- TGI [7]: > 100 µM
- TGI [8]: > 100 µM

Structure (SMILES): O=S(=O)(N=S(c1ccccc1)c1ccccc1)c1ccccc1
- TGI [1]: > 100 µM
- TGI [2]: > 100 µM
- TGI [3]: > 100 µM
- TGI [4]: > 100 µM
- TGI [10]: > 100 µM
- TGI [5]: > 100 µM
- TGI [6]: > 100 µM
- TGI [7]: > 100 µM
- TGI [8]: > 100 µM

Structure (SMILES): O=C(O)c1ccc([N+](=O)[O-])c2cc3cnccc3nc12
- TGI [1]: 58.6 µM
- TGI [2]: 45 µM
- TGI [3]: 76.9 µM
- TGI [4]: > 100 µM
- TGI [5]: > 100 µM
- TGI [6]: > 100 µM
- TGI [7]: 74.1 µM
- TGI [9]: > 100 µM

Structure (SMILES): CNc1ccc(C(=O)CC(O)CCC(C)C2OC(=O)CC(O)CC(=O)CC(O)CC(O)CC(O)CC(O)CC3(O)CC(O)C(C(=O)OC)C(CC(O[C@@H]4O[C@H](C)[C@@H](O)[C@H](N)[C@@H]4O)/C=C/C=C/C=C/C=C/C=C/C=C/C=C/C2C)O3)cc1 (stereo partly drawn)
- GI50 [1]: 3.37 µM
- TGI [1]: > 100 µM
- GI50 [2]: 4.9 µM
- TGI [2]: > 100 µM
- GI50 [3]: 3.7 µM
- TGI [3]: > 100 µM
- GI50 [4]: 2.27 µM
- TGI [4]: 5.03 µM
- GI50 [5]: 2.63 µM
- TGI [5]: 9.67 µM
- GI50 [6]: 2.33 µM
- TGI [6]: 5.47 µM
- GI50 [7]: 1.72 µM
- TGI [7]: 4.46 µM
- GI50 [8]: 1.45 µM
- TGI [8]: 3.18 µM
- GI50 [9]: 2.96 µM
- TGI [9]: 7.94 µM

Structure (SMILES): Cc1cccc(N=NC(=O)NNc2cccc(C)c2C)c1C
- TGI [1]: > 100 µM
- TGI [2]: > 100 µM
- TGI [3]: > 100 µM
- TGI [4]: 86.7 µM
- TGI [6]: > 100 µM
- TGI [8]: > 100 µM
- TGI [9]: > 100 µM

Structure (SMILES): C=CC(CCc1ccc(C(=O)OCC)cc1)c1c(N)nc(N)[nH]c1=O (stereo not drawn)
- TGI [1]: > 100 µM
- TGI [2]: > 100 µM
- TGI [4]: > 100 µM
- TGI [5]: > 100 µM
- TGI [6]: > 100 µM
- TGI [7]: > 100 µM
- TGI [8]: > 100 µM
- TGI [9]: > 100 µM

Structure (SMILES): COC[C@@H](C[C@H]1O[C@@](O)([C@H](O)[C@@H]2C[C@H](OC)[C@@H](O)CC/C=C(C)/C=C/[C@@H](O[C@@H]3O[C@@H](C)[C@H](OC)[C@@H](O)[C@@H]3O)[C@H](C)/C=C(C)/C=C(C)/C=C(\C)C(=O)O2)[C@H](C)[C@@H](O)[C@H]1C)O[C@H]1C[C@](C)(O)[C@@H](O[C@H]2C[C@@H](OC)[C@H](O)[C@@H](C)O2)C(C)O1 (stereo partly drawn)
- TGI [1]: > 100 µM
- TGI [2]: > 100 µM
- TGI [3]: > 100 µM
- TGI [4]: > 100 µM
- TGI [10]: > 55.9 µM
- TGI [5]: > 100 µM
- TGI [7]: > 100 µM
- TGI [8]: 26.5 µM
- TGI [9]: > 100 µM

Structure (SMILES): O=C1CSC(c2cccc(Oc3ccccc3)c2)N1c1ccc(Cl)cc1 (stereo not drawn)
- TGI [1]: 91.9 µM
- TGI [2]: > 100 µM
- TGI [3]: > 100 µM
- TGI [4]: > 100 µM
- TGI [10]: 78.7 µM
- TGI [5]: > 100 µM
- TGI [6]: 46.9 µM
- TGI [7]: 73.3 µM
- TGI [8]: 46.5 µM

Structure (SMILES): O=C(NI1OC(=O)c2ccccc21)c1ccc(Cl)cc1
- TGI [1]: > 100 µM
- TGI [2]: > 100 µM
- TGI [3]: > 100 µM
- TGI [4]: > 100 µM
- TGI [10]: > 100 µM
- TGI [5]: > 100 µM
- TGI [7]: > 100 µM
- TGI [8]: > 100 µM
- TGI [9]: > 100 µM
